Assay results published in publication PMC10360056, “Chemical Evolution of Amphiphilic Xenopeptides for Potentiated Cas9 Ribonucleoprotein Delivery” (Journal of the American Chemical Society, 2023).

How the values were obtained:
HeLa WT cells = test: Endocytosis pathway study with inhibitors; format: cell-based; conditions: 1 mM amiloride 2 h, 75 nM RNP, 4 h, flow cytometry
Procedure: sgRNA amount in naked Cas9/sgRNA ribonucleoproteins (Cas9 RNPs) or Cas9 RNP nanocarriers were determined using a Quant-iTTM RiboGreen® RNA assay kit (Invitrogen, CA, USA). 50 μL of naked Cas9 RNPs or Cas9 RNP nanocarriers con-taining 250 ng Cas9 protein and 50 ng sgRNA were mixed with 50 μL of TE buffer and were added to the 96-well plate. The plate was incubated for 10 min. Afterwards, 100 μL of Ribogreen solution (diluted 1:100 in TE buffer) was added to each well.
The plate was incubated for another 5 min. Ribogreen fluorescence intensity was detected using a microplate reader (Spectra-fluor Plus, Tecan, Männedorf, Switzerland) with excitation and emission wavelength of 485 and 528 nm, respectively. […]
Cells were harvested and resuspended in 600 μL of FACS buffer (PBS buffer containing 10 % FBS). […] The DAPI signal and BFP fluorescence were detected with 405 nm excitation and 450 nm emission. The eGFP and ATTO488 fluorescence was assayed with 488 nm excitation and 530 nm emission. The ATTO647N fluorescence was assayed with 640 nm excitation and 670 nm emission. Ten thousand of isolated live cells were counted and evaluated. The data were analyzed using FlowJo 7.6.5 by FlowJo, LLC (Becton, Dickinson and Company, USA).
Cell viability was determined using an MTT assay. […]
Cellular uptake of Cas9 RNP nanocarriers was evaluated by flow cytometry and confocal laser scanning microscopy (CLSM). […]

HeLa eGFP/tub cells = test: eGFP knockout study by Cas9 RNP nanocarriers, flow cytometry; format: cell-based; conditions: 48 h treatment
Procedure: (§1) HeLa WT, HeLa eGFP/tub, HeLa GFPd2 (destabilized eGFP), CT26 eGFP/luc and N2a eGFP/luc cells were grown in DMEM medium supplemented with 10 % FBS, 100 U/mL penicillin, and 100 μg/mL streptomycin. The cells were cultured in ventilated flasks in the cell incubator at 37 °C and 5 % CO2 in a humidified atmosphere. The cells were passaged at a confluency of […]
(§2) Cells were harvested and resuspended in 600 μL of FACS buffer (PBS buffer containing 10 % FBS). The samples were ana-lyzed by flow cytometry on a CytoFLEX S flow cytometer (Beckman Coulter, CA, USA). For eGFP knockout and cellular uptake experiments, 0.6 μL of 1 μg/μL DAPI was added to each sample for differentiating live and dead cells before the measurement. The DAPI signal and BFP fluorescence were detected with 405 nm excitation and 450 nm emission. The eGFP and ATTO488 fluorescence was assayed with 488 nm excitation and 530 nm emission. The ATTO647N fluorescence was assayed with 640 nm excitation and 670 nm emission. Ten thousand of isolated live cells were counted and evaluated. The data were analyzed using FlowJo 7.6.5 by FlowJo, LLC (Becton, Dickinson and Company, USA). […]
(§3) Endosomal escape of Cas9 RNP nanocarriers […]
(§4) Next, the […]
(§5) cells were washed twice with PBS and then fixed with 4 % PFA at RT for 40 min. Afterwards, the cells were washed and incubated with 2 µg/mL DAPI (for staining cell nuclei) for 30 min. Then, the staining solution was removed and 300 μL fresh PBS were added. The slides w ere stored at 4 °C in the dark until the measurement. […]
(§6) Then, the image was conv erted into 8-bit type. The mRuby3/gal8 spots were further determined by Threshold tool, and the number of the spots in the cell cytosol per cell were counted by Analyze Particles tool.
One day prior to the treatments, HeLa eGFP/tub cell s were seeded into 96 -well plates at a density of 5000 cells/well. On the next day, the medium was replaced with 80 μL of fresh medium. 20 μL of Cas9 RNP nanocarriers were added to each well resulting in a series of concentrations of RNP (100, 75, 50, 25, 10, 5, 2.5, 1, 0.5, and 0.1 nM). Lipofectamine CRISPRMAX was tested at the same concentrations of RNP with the preparation procedures as recommended by the manufacturer. The cells were incubated for 48 h. Afterwards, the cells were trypsinized and transfer red to 24-well plates, and incubated for another 72 h. Then, the cells were harvested and prepared for flow cytometry analysis. All experiments were performed in triplicate. eGFP to BFP conversion (HDR) study
One day prior to the treatments, HeLa GFPd2 cel ls were seeded into 96 -well plates at a density of 5000 cells/well. On the next day, the medium was replaced with 80 μL of fresh medium. 20 μL of Cas9 RNP/ssDNA nanocarriers containing different molar ratios of RNP/ssDNA were added to each well resulting i n a series of concentrations of RNP (100, 75, 50, 25, 10, 5, 2.5, 1, 0.5, and 0.1 nM). Lipofectamine CRISPRMAX was tested at the same concentrations of RNP and ssDNA with the prepara-tion procedures as recommended by the manufacturer. The cells were incubat ed for 48 h. Afterwards, the cells were trypsinized and transferred to 24 -well plates, and incubated for another 72 h. Then, the cells were harvested and prepared for flow cytom-etry analysis. […]
Half maximal effective concentration (EC50) values were calculated by GraphPad prism 5. […] All other data were analyzed with GraphPad prism 5 and presented as arithmetic mean ± standard deviation (SD) of at least triplicates. […]

CT26 eGFP/luc cells = test: eGFP knockout in CT26 eGFP/luc cells; format: cell-based, murine; conditions: 1 nM RNP, 48 h treatment
Procedure: as §1, §2, §3
(§7) Then, the image was conv erted into 8-bit type. The mRuby3/gal8 spots were further determined by Threshold tool, and the number of the spots in the cell cytosol per cell were counted by Analyze Particles tool. […]

HeLa GFPd2 cells = test: eGFP to BFP conversion (HDR) study, Cas9 RNP/ssDNA co-delivery; format: cell-based; conditions: for HDR: RNP/ssDNA 1/4, 48 h
Procedure: as §1, §2, §3, §4, §5, §6
One day prior to the treatments, HeLa eGFP/tub cell s were seeded into 96 -well plates at a density of 5000 cells/well. On the next day, the medium was replaced with 80 μL of fresh medium. 20 μL of Cas9 RNP nanocarriers were added to each well resulting in a series of concentrations of RNP (100, 75, 50, 25, 10, 5, 2.5, 1, 0.5, and 0.1 nM). […]

N2a eGFP/luc cells = test: eGFP knockout in N2a eGFP/luc cells; format: cell-based, murine; conditions: 1 nM RNP, 48 h treatment
Procedure: as §1, §2, §3, §7

| Compound | Cas9 RNP uptake after pretreatment with amiloride (macropinocytosis) (HeLa WT cells) | eGFP knockout (HeLa eGFP/tub cells; 1 nM RNP, N/P 24) [%] | eGFP knockout (CT26 eGFP/luc cells) [%] | HDR (HeLa GFPd2 cells; HeLa GFPd2, 0.5 nM RNP) [%] | HDR (HeLa GFPd2 cells; HeLa GFPd2, 1 nM RNP) [%] | HDR efficiency (HeLa GFPd2 cells; HeLa GFPd2, 10 nM RNP, RNP/ssDNA ratio 1/8, N/P 12, 48 h) [%] | eGFP knockout (disruption) (HeLa eGFP/tub cells; 0.5 nM (500 pM) RNP) [%] | eGFP knockout (HeLa eGFP/tub cells; RNP concentrations down to 5 nM) | eGFP knockout (N2a eGFP/luc cells) [%] |
| --- | --- | --- | --- | --- | --- | --- | --- | --- | --- |
| CCCCC/C=C\C/C=C\CCCCCCCC(=O)NCCCC[C@H](NC(=O)CCCCCCC/C=C\C/C=C\CCCCC)C(=O)NCCCC[C@H](NC(=O)CCC(=O)NCCNCCNCCNCCNC(=O)[C@H](Cc1ccc(O)cc1)NC(=O)[C@H](Cc1ccc(O)cc1)NC(=O)[C@H](Cc1ccc(O)cc1)NC(=O)[C@@H](N)CCCCN=[N+]=[N-])C(=O)NCCNCCNCCNCCNC(=O)CCC(=O)N[C@@H](Cc1ccc(O)cc1)C(=O)N[C@@H](Cc1ccc(O)cc1)C(=O)N[C@@H](Cc1ccc(O)cc1)C(=O)O [Stp1-LinA] | blocked | ~80 | – | – | – | – | – | – | – |
| CCCCC/C=C\C/C=C\CCCCCCCC(=O)NCCCC[C@H](NC(=O)CCCCCCC/C=C\C/C=C\CCCCC)C(=O)NCCCC[C@H](NC(=O)CN(CC(=O)NCCNCCNCCNCCNC(=O)[C@H](Cc1ccc(O)cc1)NC(=O)[C@H](Cc1ccc(O)cc1)NC(=O)[C@H](Cc1ccc(O)cc1)NC(=O)[C@@H](N)CCCCN=[N+]=[N-])CC(F)(F)F)C(=O)NCCNCCNCCNCCNC(=O)CN(CC(=O)N[C@@H](Cc1ccc(O)cc1)C(=O)N[C@@H](Cc1ccc(O)cc1)C(=O)N[C@@H](Cc1ccc(O)cc1)C(=O)O)CC(F)(F)F [TFE-IDAtp1-LinA] | – | ~88 | ~55 | ~11 | ~23 | ~28 | ~61 | up to 99% | 13.4 |
